Data published in patent US9422262B2, “Compounds and methods for treating diseases mediated by protease activated receptors” (The Broad Institute, Inc., priority 2010, dated 2016).

Legend:
thrombus formation = test: Thrombus formation following laser-induced injury of the cremaster arteriole in mice; type: in vivo
Source text: PAR1 is the thrombin receptor on human platelets and serves an important function in mediating thrombus formation. We tested compound 1 to determine whether it inhibited thrombus formation following laser-induced injury of the cremaster arteriole in mice. The dominant PAR receptor on mouse platelets is PAR4. However, since compound 1 acts at a non-orthosteric site and mouse PAR4 differs from human PAR4, we reasoned that compound 1 may be able to block mouse PAR4. […] When infused into mice at a concentration of 5 mg/kg, compound 1 inhibited platelet accumulation during thrombus formation by >90% (FIG. 4B). Infusion of 5 mg/kg also impaired fibrin generation during thrombus formation (FIG. 4C). Thus, compound 1 blocks both cellular- and coagulation protein-mediated arms of thrombus formation. […] The compound was therefore infused every 30 minutes during the course of these experiments. The short half-life of compound 1 in vivo may be useful in scenarios in which anticoagulation is only required for a short period of time or when anticoagulation needs to be reversed quickly, such as anticoagulation prior to invasive procedures or surgery.
(§1) Since there are also situations in which longer term anticoagulation is desired, we performed further studies in the thrombus formation model to assess analogs of compound 1 that may have a more long-lived effect. […] This instability in mouse plasma may have contributed to its short half-life of efficacy in vivo.

[1] = Stability in mouse plasma; type: in vitro ADME
Source text: as §1

cAMP production = cAMP production in washed platelets (competitive immunoassay); type: cell-based, human; details: 10 μM, PGE1 as control
Description: For this assay, platelets obtained from individual donors were washed and incubated with the probe. Platelets exposed to PGE1 (which causes elevation of platelet cAMP levels) are used as controls. Following incubation, platelets are lysed and evaluated in a commercially available competitive immunoassay of cAMP. Compounds that raise cAMP levels less than 50% of that of PGE1 are considered negative in this assay.

PAR4 = molecular target: T1, PAR4 (Homo sapiens, UniProt Q96RI0); test: Platelet activation induced through PAR4; type: cell-based; details: FIG. 1A
T1 construct: endogenous in cells; host or cells: platelets
T1 sequence (Q96RI0 18-385): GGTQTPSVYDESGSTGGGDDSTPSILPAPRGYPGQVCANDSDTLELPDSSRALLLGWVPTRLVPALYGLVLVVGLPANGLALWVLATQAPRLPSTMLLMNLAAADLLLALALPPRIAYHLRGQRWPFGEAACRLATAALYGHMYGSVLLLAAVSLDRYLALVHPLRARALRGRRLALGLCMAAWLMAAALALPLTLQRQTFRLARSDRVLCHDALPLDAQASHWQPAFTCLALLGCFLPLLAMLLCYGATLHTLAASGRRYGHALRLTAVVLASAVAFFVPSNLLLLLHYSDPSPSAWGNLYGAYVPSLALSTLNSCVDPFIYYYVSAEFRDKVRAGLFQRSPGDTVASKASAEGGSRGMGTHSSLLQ
Description: To confirm the specificity of compound 1 for PAR1, platelets were incubated with compound 1 and subsequently activated with a variety of platelet agonists. P-selectin surface expression was monitored to detect platelet activation. […] In contrast, an IC50 for inhibition of other agonists was not reached even at concentrations >30-fold its IC50 for PAR1-mediated secretion. To further evaluate whether PAR1 is the target of compound 1, we tested the ability of the compound to inhibit Ca^2+ flux in HEK293 cells overexpressing recombinant PAR1.

PAR1 = molecular target: T2, PAR1 (Homo sapiens, UniProt P25116); test: Ca2+ flux in HEK293 cells overexpressing recombinant PAR1; type: cell-based; set-up: expressed in transfected cells; host or cells: HEK293; details: concentrations similar to those for inhibition of P-selectin expression; FIG. 1B
T2 sequence (P25116 22-425): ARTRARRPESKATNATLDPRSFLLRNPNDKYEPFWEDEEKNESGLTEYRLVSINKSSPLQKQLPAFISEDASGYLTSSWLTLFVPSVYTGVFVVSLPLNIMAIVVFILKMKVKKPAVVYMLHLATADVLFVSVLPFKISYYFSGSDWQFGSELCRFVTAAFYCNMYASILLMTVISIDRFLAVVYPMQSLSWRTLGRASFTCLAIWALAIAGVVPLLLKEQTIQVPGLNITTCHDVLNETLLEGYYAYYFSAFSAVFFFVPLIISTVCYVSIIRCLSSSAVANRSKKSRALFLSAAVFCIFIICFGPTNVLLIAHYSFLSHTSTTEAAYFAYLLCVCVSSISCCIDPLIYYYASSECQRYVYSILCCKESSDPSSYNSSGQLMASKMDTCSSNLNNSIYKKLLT

CCCC(=O)Nc1cccc(NC(=O)c2ccccc2Br)c1 [Compound 1]
inhibition of platelet accumulation during thrombus formation (thrombus formation; 5 mg/kg infused every 30 minutes, FIG. 4B): > 90% | fibrin generation during thrombus formation (thrombus formation; infusion of 5 mg/kg, FIG. 4C): impaired | remaining after 5 hour incubation in mouse plasma [1]: 1.7% | modulation of cAMP production (cAMP production): inactivity | platelet activation through PAR4 (PAR4): without inhibiting | changes in Ca2+ flux in HEK293 cells overexpressing recombinant PAR1 (PAR1): inhibits
